Experimental data from patent US9132109B2, “Use of non-steroidal anti-inflammatory drugs by inhalation in the treatment of acute and chronic bronchitis” (MEDESTEA RESEARCH & PRODUCTION S.P.A., priority 2005, dated 2015).
Like-named read-outs stand apart in the source and are kept apart here.

Assays:
bronchitic patients [1] = conditions: cited from earlier work
bronchitic patients [2] = conditions: indomethacin inhaler; Tamaoki et al.; cited from earlier work
asthma patients = conditions: by inhalation, Sestini P. et al. 1999; cited from earlier work
bronchitic patients [3] = test: Pulmonary function and pro-inflammatory parameters in bronchitic patients after nebulised drug; assay type: in vivo, human; conditions: aspirin by nebuliser
Method: The study involved 4 patients with a diagnosis of COPD according to the ATS/ERS guidelines (B R Celli et al. Eur. Respir. J. 2004; 23: 932-46), who were smokers or former smokers (≧20 packets a year). The patients were instructed in the use of a peak expiratory flow (PEF) measuring device using a peak flowmeter, and asked to record the PEF measurements in a daily diary. The measurements were performed 3 times a day: immediately after getting up in the morning, before lunch, and at night before going to bed. […] The patients were suitably instructed as to how to perform the PEF measurements, and asked to record the various measurements and any symptoms, whether correlated with the disease or not, in a daily diary. Before beginning treatment with 900 mg lysine acetylsalicylate (equivalent to 500 mg of acetylsalicylic acid) twice a day, morning and evening, administered after measurement of the corresponding PEF, the patients discontinued all pharmacological treatment except for short-acting bronchodilators in accordance with the ATS/ERS guidelines (B R Celli et al. Eur. Respir. J. 2004; 932-46) as first-line of treatment. This basic treatment was continued for 15 days, during which the PEF values were recorded; their mean value was considered as the baseline value. […]

[4] = system: patients with a diagnosis of COPD; test: Peak expiratory flow (PEF) in COPD patients treated by inhalation; assay type: in vivo, human; conditions: 900 mg lysine acetylsalicylate (equivalent to 500 mg acetylsalicylic acid) twice a day by inhalation, 30 days, vs 15-day baseline; two patients; similar at all 3 daily measurements
Method: The study involved 4 patients with a diagnosis of COPD according to the ATS/ERS guidelines (B R Celli et al. Eur. Respir. J. 2004; 23: 932-46), who were smokers or former smokers (≧20 packets a year). The patients were instructed in the use of a peak expiratory flow (PEF) measuring device using a peak flowmeter, and asked to record the PEF measurements in a daily diary. The measurements were performed 3 times a day: immediately after getting up in the morning, before lunch, and at night before going to bed. At least 3 daily PEF measurements are considered a good method for the measurement of pulmonary function (C A. Holcroft et al., Chest, 2003; 124: 501-10). PEF measurement has also been used, together with other spirometric tests, to evaluate potential COPD drugs (N A. Hanania et al., Chest, 2003; 124: 834-43). The patients were suitably instructed as to how to perform the PEF measurements, and asked to record the various measurements and any symptoms, whether correlated with the disease or not, in a daily diary. […] This basic treatment was continued for 15 days, during which the PEF values were recorded; their mean value was considered as the baseline value. […]

Compound: COc1ccc2c(c1)c(CC(=O)O)c(C)n2C(=O)c1ccc(Cl)cc1 [indomethacin]
- sputum volume (bronchitic patients [1]; indomethacin inhaler, Tamaoki J. et al. 1992): reduction in sputum volume
- variation in respiratory function (FEV1) (bronchitic patients [2]): did not observe any significant variation
- immediate allergen-induced bronchoconstriction (asthma patients): ineffective

Compound: CC(=O)Oc1ccccc1C(=O)O [aspirin, acetylsalicylic acid]
- pulmonary function (bronchitic patients [3]): definite improvement
- pulmonary pro-inflammatory parameters (bronchitic patients [3]): reduction
- sputum volume (bronchitic patients [1]; aspirin by inhalation, Inoue H et al. 1991): reduces the sputum volume
- immediate allergen-induced bronchoconstriction (asthma patients): inhibited

Compound: CC(=O)Oc1ccccc1C(=O)O [lysine acetylsalicylate]
- mean increase in PEF [4]: 8 to 10 L/min
